The values that follow come from patent US9499550B2 (BRISTOL-MYERS SQUIBB COMPANY, priority 2012, dated 2016).

The subject of test [1] is HCV genotype 1a (H77 strain) replicon in HUH-7 cells. Kind of test: HCV replicon luciferase reporter assay, genotype 1a. It is filed as cell-based. Conditions: Hepatitis C virus, Huh-7, 72 h, HCV genotype 1a replicon luciferase assay, 3 days incubation, range class, read-out: LE_1a (EC50, range). Put shortly:
(§1)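 Replicon inhibition for both genotypes was measured as Renilla luciferase signal (EnduRen, 7.5 μM final, 2 h) after 3-day, 37° C exposure of replicon-bearing HUH-7 cells in 4% FCS DMEM, 0.5% DMSO. The 1b construct carries S1179I; the 1a H77 construct carries P1496L and S2204I. Twenty-point, 3-fold dilutions were fitted four-parametrically for EC50, and CC50 was taken from multiplexed Cell Titer-Blue.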

Test [2] relates to HCV genotype 1b (Con1) replicon in HUH-7 cells. Kind of test: HCV replicon luciferase reporter assay, genotype 1b. It is filed as cell-based. Conditions: Hepatitis C virus, Huh-7, 72 h, HCV genotype 1b replicon luciferase assay, 3 days incubation, range class, read-out: LE_1b (EC50, range). The method, boiled down:
as §1

SMILES strings stand for the structures.

As for `COc1ccc2c(O[C@@H]3C[C@H]4C(=O)N[C@]5(C(=O)NS(=O)(=O)C6(C)CC6)C[C@H]5/C=C\CC[C@@H](C)C[C@@H](C)[C@H](NC(=O)O[C@H](C)C(F)(F)F)C(=O)N4C3)nc(N(C)C)cc2c1` [Compound 3113, (R)-1,1,1-trifluoropropan-2-yl ((2R,6S,7R,9R,13aS,14aR,16aS,Z)-2-((3-(dimethylamino)-6-methoxyisoquinolin-1-yl)oxy)-7,9-dimethyl-14a-(((1-methylcyclopropyl)sulfonyl)carbamoyl)-5,16-dioxo-1,2,3,5,6,7,8,9,10,11,13a,14,14a,15,16,16a-hexadecahydrocyclopropa[e]pyrrolo[1,2-a][1,4]diazacyclopentadecin-6-yl)carbamate], the EC50 was < 5.46 nM in test [1] and 4.82 to 103 nM in test [2].
In the case of `[2H]C([2H])([2H])C(OC(=O)N[C@@H]1C(=O)N2C[C@H](Oc3nc(N(C)C)cc4cc(OC)ccc34)C[C@H]2C(=O)N[C@]2(C(=O)NS(=O)(=O)C3(C)CC3)C[C@H]2/C=C\CC[C@H](C)C[C@H]1C)(C([2H])([2H])[2H])C(F)(F)F` [Compound 3114, 1,1,1,3,3,3-hexadeutero-2-(trifluoromethyl)propan-2-yl((2R,6S,7R,9S,13aS,14aR,16aS,Z)-2-((3-(dimethylamino)-6-methoxyisoquinolin-1-yl)oxy)-7,9-dimethyl-14a-(((1-methylcyclopropyl)sulfonyl)carbamoyl)-5,16-dioxo-1,2,3,5,6,7,8,9,10,11,13a,14,14a,15,16,16a-hexadecahydrocyclopropa[e]pyrrolo[1,2-a][1,4]diazacyclopentadecin-6-yl)carbamate], the EC50 in test [1] and in test [2] was 4.82 to 103 nM in each case.
Turning to `[2H]C([2H])([2H])C(OC(=O)N[C@@H]1C(=O)N2C[C@H](Oc3nc(N(C)C)cc4cc(OC)ccc34)C[C@H]2C(=O)N[C@]2(C(=O)NS(=O)(=O)C3(C)CC3)C[C@H]2/C=C\CC[C@@H](C)C[C@H]1C)(C([2H])([2H])[2H])C(F)(F)F` [Compound 3115, 1,1,1,3,3,3-hexadeutero-2-(trifluoromethyl)propan-2-yl((2R,6S,7R,9R,13aS,14aR,16aS,Z)-2-((3-(dimethylamino)-6-methoxyisoquinolin-1-yl)oxy)-7,9-dimethyl-14a-(((1-methylcyclopropyl)sulfonyl)carbamoyl)-5,16-dioxo-1,2,3,5,6,7,8,9,10,11,13a,14,14a,15,16,16a-hexadecahydrocyclopropa[e]pyrrolo[1,2-a][1,4]diazacyclopentadecin-6-yl)carbamate], the 50% effective concentration (EC50) in test [1] and in test [2] was 4.82 to 103 nM each time.
As for `COc1ccc2c(O[C@@H]3C[C@H]4C(=O)N[C@]5(C(=O)NS(=O)(=O)C6(C)CC6)C[C@H]5/C=C\CC[C@H](C)C[C@@H](C)[C@H](NC(=O)OC(C)(C)C(F)(F)F)C(=O)N4C3)nc(N3CCCC3)cc2c1` [Compound 3118, 1,1,1-trifluoro-2-methylpropan-2-yl((2R,6S,7R,9S,13aS,14aR,16aS,Z)-2-((6-methoxy-3-(pyrrolidin-1-yl)isoquinolin-1-yl)oxy)-7,9-dimethyl-14a-(((1-methylcyclopropyl)sulfonyl)carbamoyl)-5,16-dioxo-1,2,3,5,6,7,8,9,10,11,13a,14,14a,15,16,16a-hexadecahydrocyclopropa[e]pyrrolo[1,2-a][1,4]diazacyclopentadecin-6-yl)carbamate], the EC50 in test [1] and in test [2] was 4.82 to 103 nM throughout.
For the molecule `COc1ccc2c(O[C@@H]3C[C@H]4C(=O)N[C@]5(C(=O)NS(=O)(=O)C6(C)CC6)C[C@H]5/C=C\CC[C@@H](C)C[C@@H](C)[C@H](NC(=O)OC(C)(C)C(F)(F)F)C(=O)N4C3)nc(N3CCCC3)cc2c1` [Compound 3119, 1,1,1-trifluoro-2-methylpropan-2-yl((2R,6S,7R,9R,13aS,14aR,16aS,Z)-2-((6-methoxy-3-(pyrrolidin-1-yl)isoquinolin-1-yl)oxy)-7,9-dimethyl-14a-(((1-methylcyclopropyl)sulfonyl)carbamoyl)-5,16-dioxo-1,2,3,5,6,7,8,9,10,11,13a,14,14a,15,16,16a-hexadecahydrocyclopropa[e]pyrrolo[1,2-a][1,4]diazacyclopentadecin-6-yl)carbamate], the EC50 in test [1] and in test [2] was < 5.46 nM in each case.
For the molecule `COc1ccc2c(O[C@@H]3C[C@H]4C(=O)N[C@]5(C(=O)NS(=O)(=O)C6CC6)C[C@H]5/C=C\CC[C@H](C)C[C@@H](C)[C@H](NC(=O)OC(C)(C)C)C(=O)N4C3)nc(N(C)C)cc2c1` [Compound 3120, tert-butyl ((2R,6S,7R,9S,13aS,14aR,16aS,Z)-14a-((cyclopropylsulfonyl)carbamoyl)-2-((3-(dimethylamino)-6-methoxyisoquinolin-1-yl)oxy)-7,9-dimethyl-5,16-dioxo-1,2,3,5,6,7,8,9,10,11,13a,14,14a,15,16,16a-hexadecahydrocyclopropa[e]pyrrolo[1,2-a][1,4]diazacyclopentadecin-6-yl)carbamate], the EC50 in test [1] and in test [2] was 4.82 to 103 nM throughout.
For the molecule `COc1ccc2c(O[C@@H]3C[C@H]4C(=O)N[C@]5(C(=O)NS(=O)(=O)C6CC6)C[C@H]5/C=C\CC[C@@H](C)C[C@@H](C)[C@H](NC(=O)OC(C)(C)C)C(=O)N4C3)nc(N(C)C)cc2c1` [Compound 3121, tert-butyl ((2R,6S,7R,9R,13aS,14aR,16aS,Z)-14a-((cyclopropylsulfonyl)carbamoyl)-2-((3-(dimethylamino)-6-methoxyisoquinolin-1-yl)oxy)-7,9-dimethyl-5,16-dioxo-1,2,3,5,6,7,8,9,10,11,13a,14,14a,15,16,16a-hexadecahydrocyclopropa[e]pyrrolo[1,2-a][1,4]diazacyclopentadecin-6-yl)carbamate], the EC50 in test [1] is 4.82 to 103 nM; in test [2], < 5.46 nM.
Regarding `COc1ccc2c(O[C@@H]3C[C@H]4C(=O)N[C@]5(C(=O)NS(=O)(=O)C6(CF)CC6)C[C@H]5/C=C\CC[C@H](C)C[C@@H](C)[C@H](NC(=O)OC(C)(C)C)C(=O)N4C3)nc(N(C)C)cc2c1` [Compound 3122, tert-butyl ((2R,6S,7R,9S,13aS,14aR,16aS,Z)-2-((3-(dimethylamino)-6-methoxyisoquinolin-1-yl)oxy)-14a-(((1-(fluoromethyl)cyclopropyl)sulfonyl)carbamoyl)-7,9-dimethyl-5,16-dioxo-1,2,3,5,6,7,8,9,10,11,13a,14,14a,15,16,16a-hexadecahydrocyclopropa[e]pyrrolo[1,2-a][1,4]diazacyclopentadecin-6-yl)carbamate], the EC50 in test [1] and in test [2] was 4.82 to 103 nM in each case.
Turning to `COc1ccc2c(O[C@@H]3C[C@H]4C(=O)N[C@]5(C(=O)NS(=O)(=O)C6(CF)CC6)C[C@H]5/C=C\CC[C@@H](C)C[C@@H](C)[C@H](NC(=O)OC(C)(C)C)C(=O)N4C3)nc(N(C)C)cc2c1` [Compound 3123, tert-butyl ((2R,6S,7R,9R,13aS,14aR,16aS,Z)-2-((3-(dimethylamino)-6-methoxyisoquinolin-1-yl)oxy)-14a-(((1-(fluoromethyl)cyclopropyl)sulfonyl)carbamoyl)-7,9-dimethyl-5,16-dioxo-1,2,3,5,6,7,8,9,10,11,13a,14,14a,15,16,16a-hexadecahydrocyclopropa[e]pyrrolo[1,2-a][1,4]diazacyclopentadecin-6-yl)carbamate], the EC50 in test [1] and in test [2] was 4.82 to 103 nM in each case.
Consider `COc1ccc2c(O[C@@H]3C[C@H]4C(=O)N[C@]5(C(=O)NS(=O)(=O)C6(CF)CC6)C[C@H]5/C=C\CC[C@H](C)C[C@@H](C)[C@H](NC(=O)OC(C)(C)C(C)(F)F)C(=O)N4C3)nc(N(C)C)cc2c1` [Compound 3124, 3,3-difluoro-2-methylbutan-2-yl((2R,6S,7R,9S,13aS,14aR,16aS,Z)-2-((3-(dimethylamino)-6-methoxyisoquinolin-1-yl)oxy)-14a-(((1-(fluoromethyl)cyclopropyl)sulfonyl)carbamoyl)-7,9-dimethyl-5,16-dioxo-1,2,3,5,6,7,8,9,10,11,13a,14,14a,15,16,16a-hexadecahydrocyclopropa[e]pyrrolo[1,2-a][1,4]diazacyclopentadecin-6-yl)carbamate], for which the half-maximal effective concentration (EC50) in test [1] and in test [2] was 4.82 to 103 nM in each case.
On to `COc1ccc2c(O[C@@H]3C[C@H]4C(=O)N[C@]5(C(=O)NS(=O)(=O)C6(CF)CC6)C[C@H]5/C=C\CC[C@@H](C)C[C@@H](C)[C@H](NC(=O)OC(C)(C)C(F)(F)F)C(=O)N4C3)nc(N(C)C)cc2c1` [Compound 3127, 1,1,1-trifluoro-2-methylpropan-2-yl((2R,6S,7R,9R,13aS,14aR,16aS,Z)-2-((3-(dimethylamino)-6-methoxyisoquinolin-1-yl)oxy)-14a-(((1-(fluoromethyl)cyclopropyl)sulfonyl)carbamoyl)-7,9-dimethyl-5,16-dioxo-1,2,3,5,6,7,8,9,10,11,13a,14,14a,15,16,16a-hexadecahydrocyclopropa[e]pyrrolo[1,2-a][1,4]diazacyclopentadecin-6-yl)carbamate], for which the values for the EC50 in test [1] and in test [2] were 4.82 to 103 nM and < 5.46 nM, respectively.
For `COc1ccc2c(O[C@@H]3C[C@H]4C(=O)N[C@]5(C(=O)NS(=O)(=O)C6(CF)CC6)C[C@H]5/C=C\CC[C@@H](C)C[C@@H](C)[C@H](NC(=O)O[C@H](C)C(F)(F)F)C(=O)N4C3)nc(N(C)C)cc2c1` [Compound 3128, (R)-1,1,1-trifluoropropan-2-yl((2R,6S,7R,9R,13aS,14aR,16aS,Z)-2-((3-(dimethylamino)-6-methoxyisoquinolin-1-yl)oxy)-14a-(((1-(fluoromethyl)cyclopropyl)sulfonyl)carbamoyl)-7,9-dimethyl-5,16-dioxo-1,2,3,5,6,7,8,9,10,11,13a,14,14a,15,16,16a-hexadecahydrocyclopropa[e]pyrrolo[1,2-a][1,4]diazacyclopentadecin-6-yl)carbamate], the EC50 in test [1] is 4.82 to 103 nM; in test [2], < 5.46 nM.
